Experimental findings from patent publication US11253516B2, “N2,N4-diphenylpyrimidine-2,4-diamine derivative, method for preparing same, and pharmaceutical composition containing same as active ingredient for prevention or treatment of cancer” (Korea Research Institute of Chemical Technology, priority 2017, dated 2022) are described below.

Molecules are shown by their SMILES. Like-named read-outs stand apart in the source and are kept apart here.

One assay addresses FLT3(D835H) (Homo sapiens (Human), UniProt P36888, D835H). Nature of the assay: KINOMEscan binding, FLT3(D835H). How it is done: (§1) The inhibitory activity on FLT kinase, such as wild-type FLT1, FLT3, FLT4, and FLT3 mutation forms, FLT3(D835H), FLT3(D835V), FLT3(D835Y), FLT3(ITD), FLT3(ITD,D835V), FLT3(ITD,F691L), FLT3(K663Q), FLT3(N841I), FLT3(R834Q) was measured.
(§2) FLT3 kinase inhibition was carried out by KINOMEscan method (DiscoverX Inc.). KINOMEscan method consists of the following processes. T7 bacteriophage labeled with FLT kinase was cultured by the infection to E. coli derived from BL21. After the infection of E. coli in the condition of 0.4 of MOI (multiplicity of infection), it was cultured for 90 to 150 minutes at 32° C. to lyse E. coli. The cell debris was removed by centrifugation and filtration, and the kinase protein present in the supernatant was secured. Additionally, the kinase protein was labeled with DNA for the qPCR measurement. The magnetic beads labeled with streptavidin were treated with the standard compound labeled with biotin and reacted for 30 minutes. The resulting beads were used as affinity beads for the measurement of a kinase activity. The binding reaction was initiated with mixing a kinase protein, the affinity beads bound with a ligand, and the compound. In this case, the used buffer solution was 20% SeaBlock, 0.17×PBS, 0.05% Tween 20, 6 mM DTT. […] The affinity of the compound to be tested was indirectly measured by Quantifying the eluted kinase by […].

The target of the next assay is FLT3 (Homo sapiens (Human), UniProt P36888). Nature of the assay: KINOMEscan binding, FLT3. Conditions: for inhibitory ability on FLT 3 kinase in comparison with FLT 1 and FLT 4: selectivity in words. The protocol:
as §1
FLT3 kinase inhibition was carried out by KINOMEscan method (DiscoverX Inc.). KINOMEscan method consists of the following processes. T7 bacteriophage labeled with FLT kinase was cultured by the infection to E. coli derived from BL21. After the infection of E. coli in the condition of 0.4 of MOI (multiplicity of infection), it was cultured for 90 to 150 minutes at 32° C. to lyse E. coli. The cell debris was removed by centrifugation and filtration, and the kinase protein present in the supernatant was secured. Additionally, the kinase protein was labeled with DNA for the qPCR measurement. The magnetic beads labeled with streptavidin were treated with the standard compound labeled with biotin and reacted for 30 minutes. The resulting beads were used as affinity beads for the measurement of a kinase activity. The binding reaction was initiated with mixing a kinase protein, the affinity beads bound with a ligand, and the compound. In this case, the used buffer solution was 20% SeaBlock, 0.17×PBS, 0.05% Tween 20, 6 mM DTT. All the reactions were carried out in volume of 20 ul at a 384 well plate. After the reaction for 1 hour at ambient temperature, the beads were washed with the solution consisting of 1×PBS, 0.05 Tween 20. Finally, the kinase bound with the beads was eluted by using 1×PBS, 0.05 Tween 20, 0.5 uM standard compound unlabeled with biotin. The affinity of the compound to be tested was indirectly measured by Quantifying the eluted kinase by […].

The next assay deals with FLT3(K663Q) (Homo sapiens (Human), UniProt P36888, K663Q). The experiment in a line: KINOMEscan binding, FLT3(K663Q). How it is done: as §1, §2
The target in the next assay is FLT3(ITD, F691L) (Homo sapiens, UniProt P36888, F691L/ITD). Nature of the assay: KINOMEscan binding, FLT3(ITD, F691L). The protocol:
as §1, §2

The target of another assay is FLT3(R834Q) (Homo sapiens (Human), UniProt P36888, R834Q). Nature of the assay: KINOMEscan binding, FLT3(R834Q). The protocol: as §1, §2
Assay [1] deals with Ba/F3 EGFR del19/T790M cell line. The experiment in a line: CellTiter-Glo cell viability, Ba/F3 EGFR del19/T790M. It is filed as cell-based. To be noted: read-out: Ba/F3 EGFR del19/T790M IC50. Summed up:
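Ba/F3 cells expressing mutant EGFR exposed to compound for 72 hours. Viability read as cellular ATP by CellTiter-Glo luminescence after 30 min equilibration at ambient temperature and 10 min shaking with reagent.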
(Cellular ATP, detected with luciferase, serves as a proxy for viable cell number.)

For another assay, the target named is FLT3(ITD, D835V) (Homo sapiens, UniProt P36888, D835V/ITD). The experiment in a line: KINOMEscan binding, FLT3(ITD, D835V). The protocol:
as §1, §2

The subject of another assay is Ba/F3 EGFR wt. cell line. The experiment in a line: CellTiter-Glo cell viability, Ba/F3 EGFR wild-type. It is filed as cell-based. Conditions: 72 hours. Summed up:
(§3)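 Ba/F3 cells expressing wild-type or del19 EGFR treated with compound at eight concentrations for 72 h; viability read as cellular ATP by CellTiter-Glo luminescence after 10 min shaking at ambient temperature. IC50 fitted from the eight-point curve.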

The test system of assay [2] is Ba/F3 EGFR del19 cell line. Nature of the assay: CellTiter-Glo cell viability, Ba/F3 EGFR del19. It is filed as cell-based. Conditions: 72 hours. Summed up: as §3
Another assay addresses FLT3(D835V) (Homo sapiens (Human), UniProt P36888, D835V). Nature of the assay: KINOMEscan binding, FLT3(D835V). The protocol: as §1, §2
The next assay has as its target EGFR del19/T790M/C797S (Homo sapiens, UniProt P00533, C797S/DEL746-750/T790M). The experiment in a line: HTRF enzyme assay, EGFR del19/T790M/C797S. The class given is biochemical. Summed up:
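Wild-type or mutant EGFR was premixed with compound, then ATP […] and biotinylated peptide […] were added. Buffer was 50 mM Tris-HCl pH 7.5 with NaCl, MgCl2, KCl, Tween 20, BSA and DTT; reactions ran 2 h at 37 °C.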
On the technique in general: In TR-FRET formats the signal depends on donor and acceptor labels being close together.

The target of the next assay is FLT1 (Homo sapiens (Human), UniProt P17948). Nature of the assay: KINOMEscan binding, FLT1. How it is done: as §1, §2
Chain of FLT1 (P17948 27-1338): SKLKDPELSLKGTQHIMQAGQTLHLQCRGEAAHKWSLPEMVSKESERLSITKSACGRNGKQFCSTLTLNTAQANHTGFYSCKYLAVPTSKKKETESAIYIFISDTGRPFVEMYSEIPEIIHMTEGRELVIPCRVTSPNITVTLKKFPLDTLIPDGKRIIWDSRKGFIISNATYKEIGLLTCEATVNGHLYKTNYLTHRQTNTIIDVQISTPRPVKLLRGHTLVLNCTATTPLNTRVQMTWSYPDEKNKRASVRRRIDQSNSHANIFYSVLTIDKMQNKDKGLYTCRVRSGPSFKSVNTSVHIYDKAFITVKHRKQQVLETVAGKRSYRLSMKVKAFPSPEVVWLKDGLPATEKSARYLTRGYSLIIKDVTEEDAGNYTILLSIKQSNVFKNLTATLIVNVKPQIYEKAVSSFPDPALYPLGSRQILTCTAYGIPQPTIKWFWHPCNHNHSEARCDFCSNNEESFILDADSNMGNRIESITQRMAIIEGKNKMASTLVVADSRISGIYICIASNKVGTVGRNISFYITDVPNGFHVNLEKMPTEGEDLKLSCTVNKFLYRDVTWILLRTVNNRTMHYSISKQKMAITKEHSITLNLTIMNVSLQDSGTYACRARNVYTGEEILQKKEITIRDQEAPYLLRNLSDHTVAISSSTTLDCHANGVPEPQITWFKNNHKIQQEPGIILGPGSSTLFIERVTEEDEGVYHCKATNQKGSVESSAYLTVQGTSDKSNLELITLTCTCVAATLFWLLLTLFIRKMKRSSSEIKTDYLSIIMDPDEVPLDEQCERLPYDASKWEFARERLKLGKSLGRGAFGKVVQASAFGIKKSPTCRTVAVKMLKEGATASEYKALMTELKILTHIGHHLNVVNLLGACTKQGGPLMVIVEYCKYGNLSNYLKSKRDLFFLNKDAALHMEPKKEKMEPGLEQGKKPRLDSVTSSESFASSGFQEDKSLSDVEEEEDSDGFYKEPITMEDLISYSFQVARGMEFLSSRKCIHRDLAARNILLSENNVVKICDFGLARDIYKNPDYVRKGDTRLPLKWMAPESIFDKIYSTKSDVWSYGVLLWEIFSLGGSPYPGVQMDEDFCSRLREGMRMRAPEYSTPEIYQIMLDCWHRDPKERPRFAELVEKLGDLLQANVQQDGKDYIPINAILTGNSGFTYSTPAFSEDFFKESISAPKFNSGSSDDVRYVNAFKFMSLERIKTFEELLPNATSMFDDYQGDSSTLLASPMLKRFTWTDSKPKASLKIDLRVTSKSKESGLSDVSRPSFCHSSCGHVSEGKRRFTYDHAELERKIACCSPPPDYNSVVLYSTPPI

Chain of EGFR del19/T790M/C797S (P00533 with tags, fused parts or gaps C797S/DEL746-750/T790M limits assumed): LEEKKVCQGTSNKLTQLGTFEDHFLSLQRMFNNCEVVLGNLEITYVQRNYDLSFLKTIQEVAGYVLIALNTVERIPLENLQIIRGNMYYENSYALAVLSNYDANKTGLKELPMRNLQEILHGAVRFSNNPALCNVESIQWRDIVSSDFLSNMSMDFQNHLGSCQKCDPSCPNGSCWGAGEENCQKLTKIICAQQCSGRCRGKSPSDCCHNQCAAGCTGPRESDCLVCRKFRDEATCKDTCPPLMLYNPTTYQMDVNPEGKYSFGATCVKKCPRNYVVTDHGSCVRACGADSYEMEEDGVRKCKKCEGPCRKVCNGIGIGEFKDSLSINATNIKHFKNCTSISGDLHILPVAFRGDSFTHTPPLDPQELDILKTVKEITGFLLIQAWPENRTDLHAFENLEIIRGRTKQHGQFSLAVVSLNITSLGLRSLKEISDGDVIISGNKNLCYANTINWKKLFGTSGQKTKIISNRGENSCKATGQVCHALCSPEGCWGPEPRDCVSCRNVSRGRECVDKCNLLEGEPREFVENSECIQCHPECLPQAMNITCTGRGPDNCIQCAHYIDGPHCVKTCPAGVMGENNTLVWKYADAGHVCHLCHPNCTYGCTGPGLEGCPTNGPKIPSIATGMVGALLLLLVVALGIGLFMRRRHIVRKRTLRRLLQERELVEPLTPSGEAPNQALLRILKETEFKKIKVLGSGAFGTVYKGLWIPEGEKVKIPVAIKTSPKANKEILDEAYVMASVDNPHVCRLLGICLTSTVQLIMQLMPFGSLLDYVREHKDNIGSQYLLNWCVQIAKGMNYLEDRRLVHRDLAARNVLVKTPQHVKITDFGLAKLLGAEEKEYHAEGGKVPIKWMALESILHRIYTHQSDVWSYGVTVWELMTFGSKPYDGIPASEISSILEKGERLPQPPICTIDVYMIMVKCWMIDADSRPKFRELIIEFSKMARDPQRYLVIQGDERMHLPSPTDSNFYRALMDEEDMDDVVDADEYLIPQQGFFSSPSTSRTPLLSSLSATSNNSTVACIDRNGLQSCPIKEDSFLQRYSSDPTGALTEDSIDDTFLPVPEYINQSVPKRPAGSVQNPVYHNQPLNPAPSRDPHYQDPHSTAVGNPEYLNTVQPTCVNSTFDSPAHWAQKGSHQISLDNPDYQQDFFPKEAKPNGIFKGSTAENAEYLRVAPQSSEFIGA

What is called Kd is the concentration at which binding is half-saturated. A high value points to weaker binding. Regarding `COc1cc(N2CCC(N3CCN(C)CC3)CC2)ccc1Nc1ncc(Cl)c(Nc2ccccc2NS(C)(=O)=O)n1` [Example 10, N-(2-((5-chloro-2-((2-methoxy-4-(4-(4-methylpiperazin-1-yl)piperidin-1-yl)phenyl)amino)pyrimidin-4-yl)amino)phenyl)methanesulfonamide], the Kd came out at 38 nM at FLT3(D835H); 3.7 nM at FLT3; 39 nM on FLT3(K663Q); 1.1 nM on FLT3(ITD, F691L); 33 nM on FLT3(R834Q); 0.32 nM on FLT3(ITD, D835V). Also, the values for the Kd on FLT3(D835V) and at FLT1 were 0.29 nM and more than 10000 nM, respectively. For the same compound, the “inhibitory ability on FLT 3 kinase in comparison with FLT 1 and FLT 4” value at FLT3 was “selectively superior inhibitory ability”. The IC50 in assay [1] (72 h) came out at 99 nM; in the assay with Ba/F3 EGFR wt. cell line, 1000 nM; in assay [2], 180 nM; against EGFR del19/T790M/C797S, 0.2 nM.
In the case of `COc1cc(N2CCC(N(C)C)CC2)ccc1Nc1ncc(Cl)c(Nc2ccccc2NS(C)(=O)=O)n1` [Example 11, N-(2-((5-chloro-2-((4-(4-(dimethylamino)piperidin-1-yl)-2-methoxyphenyl)amino)pyrimidin-4-yl)amino)phenyl)methanesulfonamide], the Kd was found to be 1.8 nM at FLT3(D835H); 1.2 nM at FLT3; 20 nM at FLT3(K663Q); 0.27 nM on FLT3(ITD, F691L); 19 nM on FLT3(R834Q); 0.16 nM at FLT3(ITD, D835V). In addition, the values for the dissociation constant (Kd) at FLT3(D835V) and on FLT1 were 0.082 nM and 910 nM, respectively. For the same compound, the “inhibitory ability on FLT 3 kinase in comparison with FLT 1 and FLT 4” value on FLT3 was “selectively superior inhibitory ability”. Further, the IC50 in assay [1] (CellTiter-Glo, 72 hours) worked out at 31 nM; with Ba/F3 EGFR wt. cell line, 340 nM; in assay [2] it was 4.7 nM; on EGFR del19/T790M/C797S (HTRF, recombinant enzyme, read-out: EGFR del19/T790M/C797S IC50), 6 nM.
